Measurements from paper PMC11247629, “New Lipophilic Hydroxamates as Promising Trypanocidal Agents: Design, Synthesis, SAR, and Conformational Behavior Studies” (ACS Medicinal Chemistry Letters, 2024).

Columns and labels:
T. brucei = settings: spiro carbocyclic 2,6-DKP-1-acetohydroxamic acids 1-5 reported previously; cited from earlier work
[1] = tested on: bloodstream form T. b. brucei (strain 221); assay: Growth inhibition of cultured bloodstream-form T. brucei (resazurin); type: cell-based, Trypanosoma brucei; settings: for IC50 / IC90: cultured bloodstream-form Trypanosoma brucei, pH = 7.4, mean of triplicate ± SEM; for IC50: concentration inhibiting growth by 50%; for IC90: concentration inhibiting growth by 90%; for trypanocidal activity (in words): bloodstream-form T. brucei; for times more potent than the unsubstituted parent / times more potent than the nonmethylated counterpart / times more potent than 18: T. brucei IC50; for times more potent than the unsubstituted parent: 19 and 20 vs 18, 25 vs 24, 28 vs 27; for times more potent than the nonmethylated counterpart: 21 vs 18, 22 vs 19, 23 vs 20, 26 vs 24
Experimental: The new hydroxamic acid derivatives 18–28 were tested against bloodstream-form T. brucei in vitro. The results are presented in Table 1, and are expressed as IC50 and IC90 values. […]
Reference: minimized structure, heterocycle and adamantane cage).
IV. Experimental procedures for the biological evaluation of the compounds
Growth inhibition analysis was carried out using bloodstream form T. b. brucei (strain 221) cultured at
37 °C, as previously described.8 Briefly, experiments were performed using 96-well microtiter plates (200
μL volumes), with each assay initiated with 2.5 x10^4 parasites mL−1, and test compounds then added at 7
concentrations in a range that had been established in preliminary experiments to encompass both EC50
and EC90 values. Plates were incubated for 48 hours, resazurin (20 μL at 0.125 mg mL−1) was then added,
and the plates re-incubated for 16 hours. Fluorescence was determined using a BMG FLUOstar Omega plate
reader (excitation 545 nm, emission 590 nm), and the data analysed using GraphPad Prism 9.0 software.
The data are expressed as IC50/IC90 ± SD, and are the average of 3 independent replicates. […]

[2] = tested on: L6 cells (a rat myoblast line); assay: Cytotoxicity against cultured rat skeletal myoblast L6 cells (resazurin); type: cell-based; settings: for Selectivity indices (SIs): ratio of the IC50 for L6 cells and T. brucei; for IC50: cultured rat skeletal myoblast L6 cells, mean of triplicate ± SEM
Experimental: (§1) To determine cytotoxicity, L6 cells (a rat myoblast line) were seeded at 1x104 mL−1 into 96-well microtiter plates (200 μL of growth medium), at a range of compound concentrations. After 6 days incubation at 37°C, 20 μL resazurin (0.125 mg mL−1) was added to each well. The plates were incubated for 6 hours, and fluorescence determined by plate reader, as above. […]

[3] = as above; type: cell-based; settings: rat, L6 rat skeletal myoblast cells, cultured rat skeletal myoblast L6 cells; mean of triplicate ± SEM
Experimental: as §1

Structure (SMILES)	IC50 (T. brucei)	IC50 ([1]; Trypanosoma brucei)	IC90 ([1]; Trypanosoma brucei)	Selectivity indices (SIs) [2]	other results
O=C(CN1C(=O)CNC2(C1=O)C1CC3CC(C1)CC2C3)NO (stereo not drawn) [Compound 1a]	90 nM				
CN1CC(=O)N(CC(=O)NO)C(=O)C12C1CC3CC(C1)CC2C3 (stereo not drawn) [Compound 1b]	193 nM				
C[C@@H]1NC2(C(=O)N(CC(=O)NO)C1=O)C1CC3CC(C1)CC2C3 (stereo partly drawn) [Compound 1c]	134 nM				
CC(C)C[C@@H]1NC2(C(=O)N(CC(=O)NO)C1=O)C1CC3CC(C1)CC2C3 (stereo partly drawn) [Compound 1d]	283 nM				
CSCC[C@@H]1NC2(C(=O)N(CC(=O)NO)C1=O)C1CC3CC(C1)CC2C3 (stereo partly drawn) [Compound 1e]	168 nM				
O=C(CN1C(=O)[C@H](Cc2ccccc2)NC2(C1=O)C1CC3CC(C1)CC2C3)NO (stereo partly drawn) [Compound 1f]	6.8 nM				
O=C(CN1C(=O)[C@@H](Cc2ccccc2)NC2(C1=O)C1CC3CC(C1)CC2C3)NO (stereo partly drawn) [Compound 1g]	9.1 nM				
O=C(CN1C(=O)C(Cc2ccccc2)NC2(C1=O)C1CC3CC(C1)CC2C3)NO (stereo not drawn) [Compound 2]	17 nM				
O=C(CN1C(=O)C(Cc2ccc(Cl)cc2)NC2(C1=O)C1CC3CC(C1)CC2C3)NO (stereo not drawn) [Compound 3]	32 nM				
O=C(CN1C(=O)CNC2(CCCCCCC2)C1=O)NO [Compound 4a]	300 nM				
CN1CC(=O)N(CC(=O)NO)C(=O)C12CCCCCCC2 [Compound 4b]	158 nM				
C[C@@H]1NC2(CCCCCCC2)C(=O)N(CC(=O)NO)C1=O [Compound 4c]	125 nM				
CC(C)C[C@@H]1NC2(CCCCCCC2)C(=O)N(CC(=O)NO)C1=O [Compound 4d]	72 nM				
O=C(CN1C(=O)[C@H](Cc2ccccc2)NC2(CCCCCCC2)C1=O)NO [Compound 4f]	29 nM				
O=C(CN1C(=O)CNC2(CCCCCC2)C1=O)NO [Compound 5a]	1870 nM				
CN1CC(=O)N(CC(=O)NO)C(=O)C12CCCCCC2 [Compound 5b]	285 nM				
O=C(CNC(=O)CN1C(=O)CNC2(C1=O)C1CC3CC(C1)CC2C3)NO (stereo not drawn) [Compound 18]		25000 ± 3000 nM	36000 ± 2000 nM		fold loss in potency ([1]; T. brucei IC50 relative to compound 1a (insertion of acetamido portion)): 278 fold; trypanocidal activity (in words) [1]: marginal activity
CC(C)C[C@@H]1NC2(C(=O)N(CC(=O)NCC(=O)NO)C1=O)C1CC3CC(C1)CC2C3 (stereo partly drawn) [Compound 19]		400 ± 90 nM	980 ± 50 nM	90	IC50 at 6 days [3]: 35000 ± 4000 nM; times more potent than the unsubstituted parent [1]: 62 fold
Cl.O=C(CNC(=O)CN1C(=O)[C@H](Cc2ccccc2)NC2(C1=O)C1CC3CC(C1)CC2C3)NO (stereo partly drawn) [Compound 20.HCl]				16	IC50 [2]: 25000 nM; IC50 [1]: 1530 nM; IC90 [1]: 4260 nM
O=C(CNC(=O)CN1C(=O)[C@H](Cc2ccccc2)NC2(C1=O)C1CC3CC(C1)CC2C3)NO (stereo partly drawn) [Compound 20]		1230 ± 200 nM	4880 ± 740 nM	24	IC50 at 6 days [3]: 29000 ± 2000 nM; times more potent than the unsubstituted parent [1]: 20 fold
CN(CC(=O)NO)C(=O)CN1C(=O)CNC2(C1=O)C1CC3CC(C1)CC2C3 (stereo not drawn) [Compound 21]		1330 ± 110 nM	3420 ± 850 nM	285	IC50 at 6 days [3]: 376000 ± 7000 nM; times more potent than the nonmethylated counterpart [1]: 19 fold
CC(C)C[C@@H]1NC2(C(=O)N(CC(=O)N(C)CC(=O)NO)C1=O)C1CC3CC(C1)CC2C3 (stereo partly drawn) [Compound 22]		34 ± 2 nM	57 ± 5 nM	940	IC50 at 6 days [3]: 32000 ± 3000 nM; times more potent than 18 [1]: 735 fold; times more potent than the nonmethylated counterpart [1]: 12 fold
CN(CC(=O)NO)C(=O)CN1C(=O)[C@H](Cc2ccccc2)NC2(C1=O)C1CC3CC(C1)CC2C3 (stereo partly drawn) [Compound 23]		53 ± 11 nM	81 ± 3 nM	470	IC50 at 6 days [3]: 25000 ± 2000 nM; times more potent than 18 [1]: 472 fold; times more potent than the nonmethylated counterpart [1]: 23 fold
O=C(CNC(=O)CN1C(=O)CNC2(CCCCCCC2)C1=O)NO [Compound 24]		> 300000 nM	> 300000 nM		trypanocidal activity (in words) [1]: inactive
CC(C)C[C@@H]1NC2(CCCCCCC2)C(=O)N(CC(=O)NCC(=O)NO)C1=O.Cl [Compound 25.HCl]				295	IC50 [2]: 249000 nM; IC50 [1]: 850 nM; IC90 [1]: 1710 nM
CC(C)C[C@@H]1NC2(CCCCCCC2)C(=O)N(CC(=O)NCC(=O)NO)C1=O [Compound 25]		1190 ± 280 nM	1900 ± 100 nM	185	IC50 at 6 days [3]: 223000 ± 28000 nM; times more potent than the unsubstituted parent [1]: > 252 fold
CN(CC(=O)NO)C(=O)CN1C(=O)CNC2(CCCCCCC2)C1=O [Compound 26]		38000 ± 8000 nM			times more potent than the nonmethylated counterpart [1]: > 8 fold
O=C(CNC(=O)CN1C(=O)CNC2(CCCCCC2)C1=O)NO [Compound 27]		> 30000 nM			trypanocidal activity (in words) [1]: inactive
CC(C)C[C@@H]1NC2(CCCCCC2)C(=O)N(CC(=O)NCC(=O)NO)C1=O [Compound 28]		1650 ± 130 nM	3330 ± 130 nM	235	IC50 at 6 days [3]: 390000 ± 6000 nM; times more potent than the unsubstituted parent [1]: > 18 fold
